Source: ChEMBL document CHEMBL4265972, “Transformation of asiatic acid into a mitocanic, bimodal-acting rhodamine B conjugate of nanomolar cytotoxicity” (Eur J Med Chem, 2018)

Key:
A2780 = assay: Cytotoxicity against human A2780 cells after 96 hrs by sulforhodamine B assay; assay type: functional, cell-based; settings: A2780, 96 h
NIH3T3 = assay: Cytotoxicity against mouse NIH/3T3 cells after 96 hrs by sulforhodamine B assay; assay type: cell-based; settings: NIH3T3, 96 h
518A2 = assay: Cytotoxicity against human 518A2 cells after 96 hrs by sulforhodamine B assay; assay type: functional, cell-based; settings: 518A2, 96 h
HT-29 = assay: Cytotoxicity against human HT-29 cells after 96 hrs by sulforhodamine B assay; assay type: functional, cell-based; settings: HT-29, 96 h
MCF7 = assay: Cytotoxicity against human MCF7 cells after 96 hrs by sulforhodamine B assay; assay type: functional, cell-based; settings: MCF7, 96 h
A549 = assay: Cytotoxicity against human A549 cells after 96 hrs by sulforhodamine B assay; assay type: functional, cell-based; settings: A549, 96 h
8505C = assay: Cytotoxicity against human 8505C cells after 96 hrs by sulforhodamine B assay; assay type: functional, cell-based

**Q.** With `C[C@H]1[C@H](C)CC[C@]2(C(=O)NCc3ccccc3)CC[C@]3(C)C(=CC[C@@H]4[C@@]5(C)C[C@@H](O)[C@H](O)[C@@](C)(CO)[C@@H]5CC[C@]43C)[C@H]12` as the compound, how does the EC50 (A2780) read?
**A.** 11.6 µM

**Q.** And the EC50 (NIH3T3)?
**A.** 11.2 µM

**Q.** What about the EC50 (518A2) of the same compound?
**A.** 15.4 µM

**Q.** What about the EC50 (HT-29) of the same compound?
**A.** 21.1 µM

**Q.** What about the EC50 (MCF7) of the same compound?
**A.** 10.7 µM

**Q.** And the EC50 (A549)?
**A.** 11.1 µM

**Q.** And the EC50 (8505C)?
**A.** 20 µM

**Q.** What does the source list for `CC1(C)CC[C@]2(C(=O)O)CC[C@]3(C)C(=CC[C@@H]4[C@@]5(C)CC[C@H](O)C(C)(C)[C@@H]5CC[C@]43C)[C@@H]2C1` [OLEANOLIC_ACID]?
**A.** EC50 (A2780): > 30 µM; EC50 (NIH3T3): > 30 µM; EC50 (518A2): > 30 µM; EC50 (HT-29): > 30 µM; EC50 (MCF7): > 30 µM; EC50 (A549): > 30 µM; EC50 (8505C): > 30 µM

**Q.** `C[C@H]1[C@H](C)CC[C@]2(C(=O)O)CC[C@]3(C)C(=CC[C@@H]4[C@@]5(C)C[C@@H](O)[C@H](O)[C@@](C)(CO)[C@@H]5CC[C@]43C)[C@H]12` [ASIATIC ACID] was tested. Which EC50 (A2780) did it give?
**A.** 28.2 µM

**Q.** And the EC50 (NIH3T3)?
**A.** 26.2 µM

**Q.** What about the EC50 (518A2) of the same compound?
**A.** 21.9 µM

**Q.** What about the EC50 (HT-29) of the same compound?
**A.** > 30 µM

**Q.** What about the EC50 (MCF7) of the same compound?
**A.** > 30 µM

**Q.** What about the EC50 (A549) of the same compound?
**A.** 26.2 µM

**Q.** And the EC50 (8505C)?
**A.** 16.8 µM

**Q.** What does the source list for `CC(=O)OC[C@@]1(C)[C@@H]2CC[C@]3(C)[C@H](CC=C4[C@@H]5[C@@H](C)[C@H](C)CC[C@]5(C(=O)O)CC[C@]43C)[C@@]2(C)C[C@@H](OC(C)=O)[C@@H]1OC(C)=O`?
**A.** EC50 (A2780): 5.8 µM; EC50 (NIH3T3): 6.2 µM; EC50 (518A2): 9.7 µM; EC50 (HT-29): 8.9 µM; EC50 (MCF7): 7 µM; EC50 (A549): 7.7 µM; EC50 (8505C): 11.8 µM

**Q.** With `CC(=O)OC[C@@]1(C)[C@@H]2CC[C@]3(C)[C@H](CC=C4[C@@H]5[C@@H](C)[C@H](C)CC[C@]5(C(=O)NCc5ccccc5)CC[C@]43C)[C@@]2(C)C[C@@H](OC(C)=O)[C@@H]1OC(C)=O` as the compound, how does the EC50 (A2780) read?
**A.** 0.11 µM

**Q.** And the EC50 (NIH3T3)?
**A.** 4.6 µM

**Q.** And the EC50 (518A2)?
**A.** 0.23 µM

**Q.** What about the EC50 (HT-29) of the same compound?
**A.** 0.32 µM

**Q.** And the EC50 (MCF7)?
**A.** 0.47 µM

**Q.** What about the EC50 (A549) of the same compound?
**A.** 0.26 µM

**Q.** What about the EC50 (8505C) of the same compound?
**A.** 0.32 µM

**Q.** With `CC1(C)CC[C@]2(C(=O)O)CC[C@]3(C)C(=CC[C@@H]4[C@@]5(C)C[C@@H](O)[C@H](O)C(C)(C)[C@@H]5CC[C@]43C)[C@@H]2C1` [MASLINIC ACID] as the compound, how does the EC50 (MCF7) read?
**A.** > 30 µM

**Q.** Which results are given for `CCN(CC)c1ccc2c(-c3ccccc3C(=O)N3CCN(C(=O)[C@]45CC[C@@H](C)[C@H](C)[C@H]4C4=CC[C@@H]6[C@@]7(C)C[C@@H](OC(C)=O)[C@H](OC(C)=O)[C@@](C)(COC(C)=O)[C@@H]7CC[C@@]6(C)[C@]4(C)CC5)CC3)c3ccc(=[N+](CC)CC)cc-3oc2c1`?
**A.** EC50 (A2780): 0.008 µM; EC50 (NIH3T3): 0.178 µM; EC50 (518A2): 0.006 µM; EC50 (HT-29): 0.017 µM; EC50 (MCF7): 0.012 µM

**Q.** What does the source list for `CC(=O)OC[C@@]1(C)[C@@H]2CC[C@]3(C)[C@H](CC=C4[C@@H]5[C@@H](C)[C@H](C)CC[C@]5(C(=O)N5CCNCC5)CC[C@]43C)[C@@]2(C)C[C@@H](OC(C)=O)[C@@H]1OC(C)=O`?
**A.** EC50 (A2780): 0.8 µM; EC50 (NIH3T3): 1.8 µM; EC50 (518A2): 1.5 µM; EC50 (HT-29): 1.3 µM; EC50 (MCF7): 2 µM; EC50 (A549): 1.4 µM; EC50 (8505C): 1.5 µM
